{"source": "patent US20230109010A1", "about": "“PESTICIDE COMPOSITIONS WITH SUPRAMOLECULAR STRUCTURES FOR AGRICULTURAL USE” (BPS JUST ENERGY TECHNOLOGY, LLC, priority 2020, published 2023)", "key": {"Pythium irregulare": {"tested_on": "Pythium irregulare", "experiment": "In vitro fungal bioassay on amended PDA, fungal ring diameter", "assay_type": "cell-based", "details": "fungicide at EC50 concentration, 24° C., 96 hours"}, "Botrytis cinerea": {"tested_on": "Botrytis cinerea", "experiment": "In vitro fungal bioassay on amended PDA, fungal ring diameter", "assay_type": "cell-based", "details": "fungicide at EC50 concentration, 24° C., 96 hours"}, "Sclerotinia sclerotiorum": {"tested_on": "Sclerotinia sclerotiorum", "experiment": "In vitro fungal bioassay on amended PDA, fungal ring diameter", "assay_type": "cell-based", "details": "fungicide at EC50 concentration, 24° C., 96 hours"}, "Fusarium graminearum": {"tested_on": "Fusarium graminearum", "assay_type": "cell-based", "details": "fungicide at EC50 concentration, PDA, 24° C., 96 hours"}, "Macrophomina phaseoli": {"tested_on": "Macrophomina phaseoli", "experiment": "In vitro fungal bioassay on amended PDA, fungal ring diameter", "assay_type": "cell-based", "details": "fungicide at EC50 concentration, 24° C., 96 hours"}, "Rhizoctonia solani": {"tested_on": "Rhizoctonia solani", "experiment": "In vitro fungal bioassay on amended PDA, fungal ring diameter", "assay_type": "cell-based", "details": "fungicide at EC50 concentration, 24° C., 96 hours"}, "Fall armyworms": {"tested_on": "Fall armyworms", "experiment": "Insecticide leaf-dip bioassay on spinach squares, percent killed", "assay_type": "in vivo, Spodoptera frugiperda", "experimental": "In this example, a ten replicated in vitro bioassay was conducted to understand the insecticide compatibilities of insecticide compositions with supramolecular host or guest chemistries. This example utilized a common insecticide, chlorantraniliprole at various application rates to understand the impact of supramolecular chemistry. Chlorantraniliprole is an insecticide active ingredient found in Coragen® insecticide, Ferterra® insecticide, and Acelepryn G® insecticide among others. Chlorantraniliprole, also known as Rynaxypyr, is an insecticide belonging to the chemical group, diamides, with a group 28 mode of action. Chlorantraniliprole opens muscular calcium channels (particularly the ryanodine receptor), rapidly causing paralysis and ultimately death of sensitive species, those being of the order of Lepidoptera and some other Coleoptera, Diptera, and Isoptera species.\nA 2x factorial was used for ppm dosages to test with those being 0.005, 0.01, 0.02, 0.04, and 0.08 ppm of chlorantraniliprole. The chlorantraniliprole was sourced from Millipore Sigma, CAS Number: 500008-45-7, with the reference material being the material used for this example. The treatments were 0.005, 0.01, 0.02, 0.04, and 0.08 ppm of chlorantraniliprole as control. The supramolcular compositions were screened at the same rates of chlorantraniliprole with the addition of 23% SymMAX™ supramolecular host chemistry to the active (i.e. 0.08 ppm of active would have 0.0184 ppm 23% SymMAX™ supramolecular host chemistry). SymMAX™ supramolecular host chemistry was sourced from Shotwell Hydrogenics. The insects used for this experiment were Fall armyworms, Spodoptera frugiperda, sourced from Benzon Research of Pennsylvania. Eggs were reared to first instar at 23° C. with a noctuid diet also prepared by Benzon research.\nTreatment solutions were prepared by making a stock solution of chlorantraniliprole by dissolving 0.0056 grams of chlorantraniliprole into 49.98 grams of acetone to make a 112 ppm stock solution. The stock solution was diluted to 11 ppm to make the appropriate treatment rates and to make the supramolecular compositions. The 11 ppm stock solution of the control and composition was diluted to 0.005, 0.01, 0.02, 0.04, and 0.08 ppm by diluting to a 100 gram solution of water for the leaf dipping.\nTreatments were applied to 1-inch squares of spinach that were dipped in each treatment solution and allowed to dry at room temperature at 20° C. for 2 hours before 5 to 6 fall armyworms were added to a petri dish with filter paper and 1.7 mL of water. Each petri dish represents one repetition of the application and the number of live worms added were recorded on each petri dish and counted at 24 and 48 hours."}}, "data": [{"smiles": "CO/C=C(/C(=O)OC)c1ccccc1Oc1cc(Oc2ccccc2C#N)ncn1", "note": "[Azoxystrobin, azoxystrobin]", "values": [{"measurement": "FUNGAL RING DIAMETER (mm) FOR AZOXYSTROBIN", "setting": "Pythium irregulare", "result": 44.3, "unit": "mm"}, {"measurement": "FUNGAL RING DIAMETER (mm) FOR AZOXYSTROBIN", "setting": "Botrytis cinerea", "result": 52.5, "unit": "mm"}, {"measurement": "FUNGAL RING DIAMETER (mm) FOR AZOXYSTROBIN", "setting": "Sclerotinia sclerotiorum", "result": 43.1, "unit": "mm"}, {"measurement": "FUNGAL RING DIAMETER (mm) FOR AZOXYSTROBIN", "setting": "Fusarium graminearum", "result": 21.1, "unit": "mm"}, {"measurement": "FUNGAL RING DIAMETER (mm) FOR AZOXYSTROBIN", "setting": "Macrophomina phaseoli", "result": 40.2, "unit": "mm"}, {"measurement": "FUNGAL RING DIAMETER (mm) FOR AZOXYSTROBIN", "setting": "Rhizoctonia solani", "result": 48.4, "unit": "mm"}]}, {"smiles": "CNC(=O)c1cc(Cl)cc(C)c1NC(=O)c1cc(Br)nn1-c1ncccc1Cl", "note": "[Chlorantraniliprole Control, chlorantraniliprole]", "values": [{"measurement": "PERCENT KILLED AT 24 HOURS", "setting": "Fall armyworms; 0.005 ppm chlorantraniliprole", "result": 26.0, "unit": "%"}, {"measurement": "PERCENT KILLED AT 48 HOURS", "setting": "Fall armyworms; 0.005 ppm chlorantraniliprole", "result": 36.0, "unit": "%"}, {"measurement": "PERCENT KILLED AT 24 HOURS", "setting": "Fall armyworms; 0.01 ppm chlorantraniliprole", "result": 15.3, "unit": "%"}, {"measurement": "PERCENT KILLED AT 48 HOURS", "setting": "Fall armyworms; 0.01 ppm chlorantraniliprole", "result": 57.0, "unit": "%"}, {"measurement": "PERCENT KILLED AT 24 HOURS", "setting": "Fall armyworms; 0.02 ppm chlorantraniliprole", "result": 15.3, "unit": "%"}, {"measurement": "PERCENT KILLED AT 48 HOURS", "setting": "Fall armyworms; 0.02 ppm chlorantraniliprole", "result": 28.9, "unit": "%"}, {"measurement": "PERCENT KILLED AT 24 HOURS", "setting": "Fall armyworms; 0.04 ppm chlorantraniliprole", "result": 37.7, "unit": "%"}, {"measurement": "PERCENT KILLED AT 48 HOURS", "setting": "Fall armyworms; 0.04 ppm chlorantraniliprole", "result": 81.4, "unit": "%"}, {"measurement": "PERCENT KILLED AT 24 HOURS", "setting": "Fall armyworms; 0.08 ppm chlorantraniliprole", "result": 19.6, "unit": "%"}, {"measurement": "PERCENT KILLED AT 48 HOURS", "setting": "Fall armyworms; 0.08 ppm chlorantraniliprole", "result": 91.7, "unit": "%"}]}, {"smiles": "FC(F)C(F)(F)OCC(Cn1cncn1)c1ccc(Cl)cc1Cl", "note": "(stereo not shown) [Tetraconazole, tetraconazole]", "values": [{"measurement": "FUNGAL RING DIAMETER (mm) FOR FLUXAPYROXAD", "setting": "Pythium irregulare", "result": 89, "unit": "mm"}, {"measurement": "FUNGAL RING DIAMETER (mm) FOR TETRACONAZOLE", "setting": "Pythium irregulare", "result": 85.93, "unit": "mm"}, {"measurement": "FUNGAL RING DIAMETER (mm) FOR FLUXAPYROXAD", "setting": "Botrytis cinerea", "result": 49.988, "unit": "mm"}, {"measurement": "FUNGAL RING DIAMETER (mm) FOR TETRACONAZOLE", "setting": "Botrytis cinerea", "result": 65.2, "unit": "mm"}, {"measurement": "FUNGAL RING DIAMETER (mm) FOR FLUXAPYROXAD", "setting": "Sclerotinia sclerotiorum", "result": 65.41, "unit": "mm"}, {"measurement": "FUNGAL RING DIAMETER (mm) FOR TETRACONAZOLE", "setting": "Sclerotinia sclerotiorum", "result": 56.96, "unit": "mm"}, {"measurement": "FUNGAL RING DIAMETER (mm) FOR FLUXAPYROXAD", "setting": "Fusarium graminearum", "result": 40.783, "unit": "mm"}, {"measurement": "FUNGAL RING DIAMETER (mm) FOR TETRACONAZOLE", "setting": "Fusarium graminearum", "result": 30.766, "unit": "mm"}, {"measurement": "FUNGAL RING DIAMETER (mm) FOR FLUXAPYROXAD", "setting": "Macrophomina phaseoli", "result": 66.979, "unit": "mm"}, {"measurement": "FUNGAL RING DIAMETER (mm) FOR TETRACONAZOLE", "setting": "Macrophomina phaseoli", "result": 61.298, "unit": "mm"}, {"measurement": "FUNGAL RING DIAMETER (mm) FOR FLUXAPYROXAD", "setting": "Rhizoctonia solani", "result": 54.377, "unit": "mm"}, {"measurement": "FUNGAL RING DIAMETER (mm) FOR TETRACONAZOLE", "setting": "Rhizoctonia solani", "result": 74.33, "unit": "mm"}]}]}
